Test results reported in ChEMBL document CHEMBL5729461, “CDPK1 inhibitors, compositions, and methods related thereto” (2022).

biological target: T1, Calmodulin-domain protein kinase 1 (Toxoplasma gondii, UniProt Q9BJF5); assay: Inhibition Assay: Certain of the compounds prepared as described above were assayed to determine their IC50 for inhibition of T. gondii CDPK1 (tgCDPK1). At least three independent replicates of the assay were conducted for each compound tested.
T1 sequence (Q9BJF5 whole entry): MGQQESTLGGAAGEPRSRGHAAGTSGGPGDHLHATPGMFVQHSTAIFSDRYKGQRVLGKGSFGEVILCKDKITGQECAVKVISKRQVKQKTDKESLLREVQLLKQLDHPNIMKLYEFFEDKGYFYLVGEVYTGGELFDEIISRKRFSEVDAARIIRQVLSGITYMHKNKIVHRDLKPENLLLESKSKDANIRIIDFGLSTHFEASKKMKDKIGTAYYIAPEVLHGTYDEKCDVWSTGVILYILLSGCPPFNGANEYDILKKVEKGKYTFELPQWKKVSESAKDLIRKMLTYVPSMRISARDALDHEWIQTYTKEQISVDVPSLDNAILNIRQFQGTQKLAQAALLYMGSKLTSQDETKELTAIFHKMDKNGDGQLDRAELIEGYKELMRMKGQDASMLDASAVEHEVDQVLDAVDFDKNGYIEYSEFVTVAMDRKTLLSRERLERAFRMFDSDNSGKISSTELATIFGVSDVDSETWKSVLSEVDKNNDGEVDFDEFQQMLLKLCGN

| SMILES | IC50 [nM] |
| --- | --- |
| NC(=O)c1ccnc(Oc2nn([C@H]3C[C@H](F)C3)c3ncnc(N)c23)c1 | 69.7 |
| N#Cc1cccc(Cc2nn([C@H]3C[C@H](F)C3)c3ncnc(N)c23)c1 | 45.9 |
| COc1ccnc(Oc2nn([C@H]3C[C@@H](O)C3)c3ncnc(N)c23)c1 | 37.1 |
| Nc1ncnc2c1c(Cc1cccc(F)c1)cn2[C@H]1C[C@H](O)C1 | 28.3 |
| Nc1ncnc2c1c(Cc1cccc(F)c1)nn2[C@H]1C[C@H](F)C1 | 14.2 |
| Nc1ncnc2c1c(Cc1cccc(F)c1)nn2[C@H]1C[C@H](O)C1 | 28.3 |
| Nc1ncnc2c1c(Cc1cccc(Cl)c1)nn2[C@H]1C[C@@H](F)C1 | 7.05 |
| Nc1ncnc2c1c(Cc1cccc(C(F)(F)F)c1)nn2[C@H]1C[C@H](O)C1 | 36 |
| Nc1ncnc2c1c(Cc1cccc(Cl)c1)nn2[C@H]1C[C@H](O)C1 | 8.87 |
